Data reported in paper PMC4670083 (Nature medicine, 2015).

Biological target: T1, HPRT1 (Homo sapiens, UniProt P00492)
T1 sequence (P00492 2-218): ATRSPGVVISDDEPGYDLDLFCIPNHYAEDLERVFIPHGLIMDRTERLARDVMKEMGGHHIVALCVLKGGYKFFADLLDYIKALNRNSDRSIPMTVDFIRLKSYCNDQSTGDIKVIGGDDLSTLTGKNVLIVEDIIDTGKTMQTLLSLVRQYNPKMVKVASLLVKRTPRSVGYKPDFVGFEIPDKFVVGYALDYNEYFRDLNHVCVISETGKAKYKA
Assay: biochemical

O=c1[nH]cnc2nc[nH]c12 [HX, hypoxanthine]
IC50: 7.7 µM
